Format in all cases: cell-based
Assay [1] concerns control (Zeocin untreated) recombinant bioluminescent E. coli HB101 assay reagent. Kind of assay: ZnSO4 sensitivity assay, control assay reagent. The note with it: 15 minutes exposure to ZnSO4, % toxic effect on light output. Here is the method:
(§1) 1. Bioluminescent genetically modified E. coil strain HB101 (E. coli HB101 made bioluminescent by transformation with a plasmid carrying the lux operon of vibrio fischeri constructed by the method of Shaw and Kado, as described in Biotechnology 4: 560-564) was grown in fermenter as a batch culture in low salt medium (LB(5 g/ml NaCl)+glycerol+MgSO4).
(§2) 2. Two aliquots of the culture were removed from the fermenter into separate sterile shaker flasks at each of three different stages of growth i.e. at OD630 values of 0.038 (lag phase growth), 1.31 (mid-exponential phase growth) and 2.468 (stationary phase growth).
4. An equal volume of water was added to the second aliquot of culture for each of the three growth stages and the cultures processed into assay reagent as described above.
(§3) 5. Samples of each of the three Zeocin™ treated and three control assay reagents were then evaluated for sensitivity to toxicant (ZnSO4) according to the following assay protocol:
1. […]
2. […] Base line (time zero) readings of light output were then measured for each of the reconstituted reagents. […]
(§4) 4. The vials were incubated at room temperature and light output readings were taken 5, 10, 15, 20, 25 and 30 minutes after addition of ZnSO4 solution.
5. The % toxic effect for each sample was calculated as follows: [formula] […]
Ct=light in control at reading time […]
(§5) St=light in sample at reading time

Assay [2] deals with Zeocin treated recombinant bioluminescent E. coli HB101 assay reagent. Kind of assay: ZnSO4 sensitivity assay, Zeocin treated assay reagent. As to conditions: for SENSITIVITY-EC50 VALUES, ZEOCIN TREATED: 15 minutes exposure to ZnSO4, % toxic effect on light output. Here is the method: as §1, §2
3. One aliquot of culture for each of the three growth stages was inactivated by contact with Zeocin™ (1 mg Zeocin™ added per 2.5×10^6 cells, i.e. the concentration of Zeocin™ per cell is kept constant) for 300 minutes and then processed into assay reagent by freeze drying and reconstitution, as described in part (B) of Example 1.
as §3
1. ZnSO4 solutions were prepared in pure water at 30, 10, 3, 1, 0.3 and 0.1 ppm. Pure water was also used as a control.
2. Seven vials of each of the three Zeocin™ treated and each of the three control assay reagents (i.e. one for each of the six ZnSO4 solutions and one for the pure water control) were reconstituted using 0.5 ml of reconstitution solution (eg 0.2M sucrose) and then left to stand at room temperature for 15 minutes to allow the light output to stabilize. Base line (time zero) readings of light output were then measured for each of the reconstituted reagents.
3. 0.5 ml aliquots of each of the six ZnSO4 solutions and the pure water control were added to separate vials of reconstituted assay reagent. This was repeated for each of the different Zeocin™ treated and control assay reagents.
as §4
5. The % toxic effect for each sample was calculated as follows: [formula]
where: Co=light in control at time zero
Ct=light in control at reading time
So=light in sample at time zero
as §5

Assay [3] has as its system recombinant bioluminescent E. coli strain HB101. Description: Light output of reconstituted freeze dried assay reagent. As to conditions: cells exposed to 1.5 mg/ml Zeocin for 5 hours, reconstituted in 0.2M sucrose. Here is the method: Five hours after the addition of Zeocin™ or water the remaining bacterial cells in the Zeocin™ treated and control cultures were harvested by the centrifugation, washed (to remove traces of Zeocin™ from the Zeocin™ treated culture), re-centrifuged and resuspended in cryoprotectant to an OD630 of 0.25. 200 μl aliquots of the cells in cryoprotectant were dispensed into single shot vials, and freeze dried. Freeze dried samples of the Zeocin™ treated cells and control cells were reconstituted in 0.2M sucrose to form assay reagents and the light output of the assay reagents measured at various times after reconstitution.

Assay [4] has the same test system. Kind of assay: Light output of culture during Zeocin treatment (Deltatox luminometer). As to conditions: 1.5 mg/ml Zeocin; 5 to 300 minutes. How it is done: (§6) 1. Bioluminescent genetically modified E. coil strain HB101 (E. coli HB101 made bioluminescent by transformation with a plasmid carrying the lux operon of Vibrio fischeri constructed by the method of Shaw and Kado, as described in Biotechnology 4: 560-564) were grown from a frozen stock in 5 ml of low salt medium (LB (5 g/ml NaCl)+glycerol+MgSO4) for 24 hours.
(§7) 2. 1 ml of the 5 ml culture was then used to inoculate 200 ml of low salt medium in a shaker flask and the resultant culture grown to an OD630 of 0.407 (exponential growth phase).
(§8) 3. 50 ml of this culture was removed to a fresh sterile shaker flask (control cells).
4. Zeocin™ was added to the 150 ml of culture in the original shaker flash, to a final concentration of 1.5 mg/ml. At the same time, an equivalent volume of water was added to the 50 ml culture removed from the original flask (control cells).
5. The time course of cell inactivation was monitored by removing samples from the culture at 5, 60, 120, 180, 240 and 300 minutes after the addition of Zeocin™ and taking measurements of both light output (measured using a Deltatox luminometer) and viable count (per ml, determined using the method given in Example 3 below) for each of the samples. Samples of the control cells were removed at 5 and 300 minutes after the addition of water and measurements of light output and viable count taken as for the Zeocin™ treated cells.

Assay [5] shares this test system. Kind of assay: Inactivation of bioluminescent E. coli: viable count time course. The note with it: 1.5 mg/ml Zeocin; exponential growth phase culture. Here is the method:
as §6, §7, §8
4. Zeocin™ was added to the 150 ml of culture in the original shaker flash, to a final concentration of 1.5 mg/ml. […]
5. The time course of cell inactivation was monitored by removing samples from the culture at 5, 60, 120, 180, 240 and 300 minutes after the addition of Zeocin™ and taking measurements of both light output (measured using a Deltatox luminometer) and viable count (per ml, determined using the method given in Example 3 below) for each of the samples. […]
5. The number of bacterial colonies present for each of the three aliquots at each of the serial dilutions were counted and the values averaged. Viable count was calculated per ml of bacterial culture.

The values below come from patent US6524810B2, “Method of making bioluminescent assay reagent based on non-viable E. coli” (Azur Environmental, priority 1998, dated 2003).

Consider `O=S(=O)([O-])[O-].[Zn+2]` [ZnSO4], for which the “SENSITIVITY-EC50 VALUES, CONTROL CELLS” value worked out at 1.580 ppm ZnSO4 in assay [1] (Lag Phase assay reagent) and 0.457 ppm ZnSO4 in assay [1] (Stationary phase assay reagent). The “SENSITIVITY-EC50 VALUES, ZEOCIN TREATED” value in assay [2] (Expotential phase assay reagent) stood at 0.446 ppm ZnSO4; in assay [2] (Lag Phase assay reagent) it was 1.445 ppm ZnSO4; in assay [2] (Stationary phase assay reagent), 0.426 ppm ZnSO4.
For `Cc1c(N)nc([C@H](CC(N)=O)NC[C@H](N)C(N)=O)nc1C(=O)N[C@H](C(=O)N[C@H](C)[C@@H](O)[C@H](C)C(=O)N[C@H](C(=O)NCCC1=N[C@@H](c2nc(C(=O)NCCCCN=C(N)N)cs2)CS1)[C@@H](C)O)[C@@H](O[C@@H]1O[C@@H](CO)[C@@H](O)[C@H](O)[C@@H]1O[C@H]1O[C@H](CO)[C@@H](O)[C@H](OC(N)=O)[C@@H]1O)c1cnc[nH]1` [Zeocin™, phleomycin D1], the “light output of reconstituted assay reagent versus control (Zeocin untreated) cells” value in assay [3] is recorded as “not significantly different”. Also, the “light output from the culture with Zeocin contact time” value in assay [4] was “decrease gradually”. Also, the “effect of Zeocin treatment on sensitivity of assay reagent to ZnSO4” value in assay [2] (1 mg Zeocin per 2.5×10^6 cells for 300 minutes, three growth stages, versus control reagents) is reported as “does not significantly affect”. Also, the “contact time for complete inactivation of the culture (viable count)” value in assay [5] worked out at 3 h.
